Eleven compounds from EP0244595A2, “Dihydropyridine derivatives, process for their preparation and their use as pharmaceutical compounds” (Byk Gulden Lomberg Chemische Fabrik GmbH, priority 1986, dated 1987) can be followed below.

The experiment deals with genetisch hypertonen Ratten. The experiment can be described thus: Antihypertensive effect (systolic blood pressure, tail cuff) in spontaneously hypertensive rats after oral dosing. Format: in vivo, Ratte. As to conditions: Rattus norvegicus; for change in vivo at 10 µmol/kg: 10 µmol/kg p.o. once daily on four consecutive days; for change in vivo at 25 µmol/kg: 25 µmol/kg p.o. once daily on four consecutive days; for change in vivo at 5 µmol/kg: 5 µmol/kg p.o. once daily on four consecutive days. From the text:
Die antihypertensive Wirksamkeit der erfindungsgemäßen Verbindungen kann am Modell der spontan hypertonen Ratte nachgewiesen werden.
Zur Bestimmung der antihypertensiven Wirkung werden die unten aufgeführten Verbindungen in den angegebenen Dosen an vier aufeinander folgenden Tagen an je 6 männlichen Ratten (Stamm SHR/N/Ibm/Bm, 250-350 g) mit genetisch bedingtem Hochdruck (systolischer Blutdruck > 180 mmHg) täglich einmal mittels Schlundsonde verabfolgt. Die Messung des Blutdrucks erfolgt jeweils 6 und gegebenenfalls 2 oder 24 Studnen nach Substanzgabe.
Die Blutdruckmessung wird in einer Wärmekammer bei 36°C vorgenommen, um eine bessere Durchblutung der Schwanzarterie zu erreichen. Hierzu werden die Tiere in perforierte Lochblechkäfige verbracht und 20 - 40 Min. nach Beginn der Aufwärmung gemessen. Zur Messung des systolischen arteriellen Drucks wird eine ringförmige Manschette mit aufblasbarer Gummimembran zur Unterbindung der Durchblutung und ein ringförmiger Piezokristallaufnehmer zur Erfassung der Pulswellen auf den Schwanz aufgeschoben. Nach erfolgter Unterbindung des Blutstroms in der Schwanzarterie wird der Manschettendruck kontinuierlich reduziert. Die Wiederkehr der Pulswellen bei Druckablassen wird automatisch als systolischer Blutdruck erkannt und ausgedruckt (Bühler, R. er al." Microprocessor-based automation of blood pressure measurement in the conscious rat. Proceedings of the 4th international symposium on rats with spontaneous hypertension and related studies, Rascher, R. et al. (Eds.), Schattauer Verlag, Stuttgart, New York, 1982, S. 410-413). Pulssignale und Druckverlauf werden zur Auswertung graphisch aufgezeichnet.
Zur Gewöhnung an den Meßvorgang werden die Tiere vor Substanzprüfung 14 Tage trainiert. In der zweiten Trainingswoche werden Blutdruck-Vorwerte erhoben. Tiergruppen, die Substanz erhalten, werden gegen eine Kontrollgruppe geprüft.
In der anschließenden Tabelle werden die untersuchten Verbindungen durch laufende Nummern gekennzeichnet, die mit den jewiligen Beispielnummern übereinstimmen.
Tabelle I gibt für die Vertreter der erfindungsgemäßen Verbindungen die prozentuale Senkung des Blutdrucks (BP) nach oraler Verabreichung bei der Ratte wieder.

[1] abbreviates: 2h after dosing, mean of days 1+4, male SHR/N/Ibm/Bm rats, N=6, read-out: BP (% Änderung vs. Kontrolle), Mittelwert für Meßzeitpunkte: Stunden nach Gabe (Tage) 2h (1.+4.Tag).
The mark [2] stands for this setting: 6h after dosing, mean of days 1-4, male SHR/N/Ibm/Bm rats, N=6, read-out: BP (% Änderung vs. Kontrolle), Mittelwert für Meßzeitpunkte: Stunden nach Gabe (Tage) 6h (1.-4.Tag).
The mark [3] stands for this setting: 24h after dosing, mean of days 1+3, male SHR/N/Ibm/Bm rats, N=6, read-out: BP (% Änderung vs. Kontrolle), Mittelwert für Meßzeitpunkte: Stunden nach Gabe (Tage) 24h (1.+3.Tag).

The structures appear in SMILES notation. Counter-ions that a name gives are not always drawn. Like-named read-outs stand apart in the source and are kept apart here.

Regarding `COc1ccccc1N1CCN(CCOC(=O)C2=C(C)NC(C)=C(C(=O)O[C@@H]3C[C@H](C)CC[C@H]3C(C)C)C2c2cccc([N+](=O)[O-])c2)CC1` (single isomer, unassigned) [Beispiel 9, 1,4-Dihydro-2,6-dimethyl-4-(3-nitrophenyl)-pyridin-3,5-dicarbonsäure-3-(-)-menthyl-5-{2-[4-(2-methoxyphenyl)1-piperazinyl]-ethyl}-ester], the change in vivo at 10 µmol/kg under setting [1] was -22%, the change in vivo at 10 µmol/kg under setting [2] was -32% and the change in vivo at 10 µmol/kg under setting [3] is -4%.
In the case of `COc1ccccc1N1CCN(CCCOC(=O)C2=C(C)NC(C)=C(C(=O)O[C@@H]3C[C@H](C)CC[C@H]3C(C)C)C2c2cccc([N+](=O)[O-])c2)CC1` (stereo partly drawn) [Beispiel 3a, 1,4-Dihydro-2,6-dimethyl-4-(3-nitrophenyl)-pyridin-3,5-dicarbonsäure-3-(-)-menthyl-5-{3-[4-(2-methoxyphenyl)-1-piperazinyl]-propyl}-ester-fumarat], the change in vivo at 25 µmol/kg is, setting by setting: under setting [1], -46%; under setting [2], -42%; under setting [3], -15%.
Turning to `CC1=C(C(=O)OCCCN2CCC(C(=O)c3ccc(F)cc3)CC2)C(c2cccc([N+](=O)[O-])c2)C(C(=O)O[C@@H]2C[C@H](C)CC[C@H]2C(C)C)=C(C)N1` (single isomer, unassigned) [Beispiel 7, 1,4-Dihydro-2,6-dimethyl-4-(3-nitrophenyl)-pyridin-3,5-dicarbonsäure-3-(-)-menthyl-5-{3-[4-(4-fluorbenzoyl)-piperidyl-1]-propyl}-ester-hydrochlorid], the change in vivo at 10 µmol/kg under setting [1] is -12%, the change in vivo at 10 µmol/kg under setting [2] is -11% and the change in vivo at 10 µmol/kg under setting [3] was found to be 5%.
As to `CCOc1ccccc1N1CCN(CCCOC(=O)C2=C(C)NC(C)=C(C(=O)O[C@@H]3C[C@H](C)CC[C@H]3C(C)C)C2c2cccc([N+](=O)[O-])c2)CC1` (single isomer, unassigned) [Beispiel 11, 1,4-Dihydro-2,6-dimethyl-4-(3-nitrophenyl)-pyridin-3,5-dicarbonsäure-3-(-)-menthyl-5-{3-[4-(2-ethoxyphenyl)-1-piperazinyl]-propyl}ester-fumarat], the change in vivo at 10 µmol/kg is, setting by setting: under setting [1], -21%; under setting [2], -26%; under setting [3], -10%.
As to `CC1=C(C(=O)OCCN2CCN(c3ccccc3)CC2)C(c2cccc([N+](=O)[O-])c2)C(C(=O)O[C@@H]2C[C@H](C)CC[C@H]2C(C)C)=C(C)N1` (single isomer, unassigned) [Beispiel 4b, 1,4-Dihydro-2,6-dimethyl-4-(3-nitrophenyl)-pyridin-3,5-dicarbonsäure-3-(-)-menthyl-5-[2-(4-phenyl-1-piperazinyl)-ethyl]ester-fumarat], the change in vivo at 5 µmol/kg was -18% under setting [1], -16% under setting [2] and 4% under setting [3].
Take `CC1=C(C(=O)OCCCN2CCN(c3ccccn3)CC2)C(c2cccc([N+](=O)[O-])c2)C(C(=O)O[C@@H]2C[C@H](C)CC[C@H]2C(C)C)=C(C)N1` (single isomer, unassigned) [Beispiel 12, 1,4-Dihydro-2,6-dimethyl-4-(3-nitrophenyl)-pyridin-3,5-dicarbonsäure-3-(-)-menthyl-5-{3-[4-(2-pyridyl)-1-piperazinyl]-propyl}-ester-fumarat]: the change in vivo at 10 µmol/kg is, setting by setting: under setting [1], -17%; under setting [2], -20%; under setting [3], -1%.
With `CC1=C(C(=O)OCCCN2CCN(C(c3ccccc3)c3ccccc3)CC2)C(c2cccc([N+](=O)[O-])c2)C(C(=O)O[C@@H]2C[C@H](C)CC[C@H]2C(C)C)=C(C)N1` (single isomer, unassigned) [Beispiel 13, 1,4-Dihydro-2.6-dimethyl-4-(3-nitrophenyl)-pyridin-3,5-dicarbonsäure-3-(-)-menthyl-5-[3-(4-benzhydryl-1-piperazinyl)-propyl]-ester-semifumarat], the change in vivo at 25 µmol/kg under setting [1] is -30%, the change in vivo at 25 µmol/kg under setting [2] is -40% and the change in vivo at 25 µmol/kg under setting [3] is -35%.
For `CC1=C(C(=O)OCCCN2CCC(c3ccccc3)(c3ccccc3)CC2)C(c2cccc([N+](=O)[O-])c2)C(C(=O)O[C@@H]2C[C@H](C)CC[C@H]2C(C)C)=C(C)N1` (stereo partly drawn) [Beispiel 1a, 1,4-Dihydro-2,6-dimethyl-4-(3-nitrophenyl)-pyridin-3,5-dicarbonsäure-3-(-)-menthyl-5-[3-(4,4-diphenylpiperidyl-1)-propyl]-ester-hydrochlorid], in that order: -24%, -20% and -15%.
For `CC1=C(C(=O)OCCCN2CCC(c3ccccc3)CC2)C(c2cccc([N+](=O)[O-])c2)C(C(=O)O[C@@H]2C[C@H](C)CC[C@H]2C(C)C)=C(C)N1` (single isomer, unassigned) [Beispiel 2b, 1,4-Dihydro-2,6-dimethyl-4-(3-nitrophenyl)-pyridin-3,5-dicarbonsäure-3-(-)-menthyl-5-[3-(4-phenylpiperidyl-1)-propyl]-ester-hydrochlorid], in that order: -36%, -33% and -16%.
For `COc1ccccc1N1CCN(CCCOC(=O)C2=C(C)NC(C)=C(C(=O)O[C@@H]3C[C@H](C)CC[C@H]3C(C)C)C2c2cccc([N+](=O)[O-])c2)CC1` (single isomer, unassigned) [Beispiel 3b, 1,4-Dihydro-2,6-dimethyl-4-(3-nitrophenyl)-pyridin-3,5-dicarbonsäure-3-(-)-menthyl-5-{3-[4-(2-methoxyphenyl)-1-piperazinyl]-propyl}-ester-fumarat], in that order: -23%, -36% and -17%.
In the case of `CC1=C(C(=O)OCCN2CCN(c3ccccn3)CC2)C(c2cccc([N+](=O)[O-])c2)C(C(=O)O[C@@H]2C[C@H](C)CC[C@H]2C(C)C)=C(C)N1` (single isomer, unassigned) [Beispiel 5b, 1,4-Dihydro-2,6-dimethyl-4-(3-nitropheny)-pyridin-3,5-dicarbonsäure-3-(-)-menthyl-5-{2-[4-(2-pyridyl)-1-piperazinyl]-ethyl}-ester-fumarat], the change in vivo at 10 µmol/kg reads like this: under setting [1], -20%; under setting [2], -12%; under setting [3], -10%.
